The values that follow come from PubChem BioAssay (NCI).

Among the test systems are DMS 273 small cell lung; HOP-18 NSCLC; LXFL 529 NSCLC; XF 498 CNS; SNB-78 CNS; M19-MEL melanoma; KM20L2 colon; P388/ADR leukemia; SN12K1 renal; P388 leukemia.
What all share (test): NCI tumour cell line growth inhibition, 48 h

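96-well plates; 48 h exposure; 5 concentrations. Endpoints by linear interpolation between flanking doses. Not reached: highest tested concentration assigned. The concentration for full growth arrest is given as TGI.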

With `[C-]#[O+].[C-]#[O+].[Ir].[O-]c1cccc2cccnc12`, the TGI in the experiment with DMS 273 small cell lung and in the experiment with HOP-18 NSCLC was greater than 100 µM throughout.
As to `O=S(O)c1cc(Cl)cc(Cl)c1O`, the TGI in the experiment with LXFL 529 NSCLC, with XF 498 CNS, in the experiment on SNB-78 CNS and in the experiment on M19-MEL melanoma was greater than 100 µM each time.
Take `COC(=O)C1=CC[C@@H]2C(C(=O)O)=CO[C@@H](OC3OC(CO)C(O)C(O)C3O)[C@H]12` (stereo not given in full): the TGI was greater than 300 µM with DMS 273 small cell lung; greater than 300 µM in the experiment with KM20L2 colon; greater than 139 µM in the experiment on P388/ADR leukemia; greater than 300 µM in the experiment on XF 498 CNS; greater than 300 µM in the experiment with SN12K1 renal; greater than 178 µM in the experiment on SNB-78 CNS. Besides, the TGI with P388 leukemia, in the experiment on HOP-18 NSCLC and with M19-MEL melanoma was greater than 300 µM each time.
